Experimental data from BindingDB's records for doi:10.1021/bi200655g (Glaxosmithkline, 2011).

Target: T1, Peptide deformylase (Streptococcus pneumoniae (strain ATCC BAA-255 / R6), UniProt Q8DP79)
T1 sequence (Q8DP79 whole entry): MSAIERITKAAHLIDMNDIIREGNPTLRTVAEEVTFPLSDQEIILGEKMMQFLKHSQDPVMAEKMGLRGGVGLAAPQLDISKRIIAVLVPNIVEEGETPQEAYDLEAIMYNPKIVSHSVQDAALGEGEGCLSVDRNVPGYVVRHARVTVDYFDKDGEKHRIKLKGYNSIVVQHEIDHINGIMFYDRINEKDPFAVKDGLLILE
Assay: Binding Assay
Text: Binding assay using PDF inhibitors.

SMILES | Ki
Cc1ccccc1Nc1nc(N2CCN(c3ccccc3Cl)CC2)nc(N2CSC[C@H]2C(=O)NCC(=O)NO)n1 [PDF inhibitor, compound 7] | 650 nM
CCCCC[C@H](CN(O)C=O)C(=O)NNc1nccc(C(F)(F)F)n1 [PDF inhibitor, compound 1] | 6310 nM
O=CC(O)CCNC(=O)c1cccc(Cl)c1Cl (stereo unspecified) [PDF inhibitor, compound 4] | 25900 nM

Stronger by Ki, values ahead:

Ki | SMILES
334 nM | CNC(=O)c1cccc(C)c1Nc1nc(N2CCN(c3ccccc3Cl)CC2)nc(N2CSC[C@H]2C(=O)NCC(=O)NO)n1 [PDF inhibitor, compound 2]
53.7 nM | Cc1ccccc1Nc1nc(N2CCN(c3ccccc3Cl)CC2)nc(N2CSC[C@H]2COCC(=O)NO)n1 [PDF inhibitor, compound 8]
213 nM | CNC(=O)c1cccc(C)c1Nc1nc(N2CCN(c3ccccc3Cl)CC2)nc(N2CSC[C@H]2COCC(=O)NO)n1 [PDF inhibitor, compound 6]
